# Test results reported in patent US10196391B2 (Hoffmann-La Roche Inc., priority 2014, dated 2019).
# System: HBsAg
# Test: HBsAg assay (CLIA) in HepG2.2.15 cells
# Type: cell-based, HBV
# Conditions: Hepatitis B virus, HepG2.2.15, read-out: IC50 (HBsAg assay)
# Protocol: HepG2.2.15 cells (Acs et al. Proc Natl Acad Sci USA, 84, (1987), 4641-4), a constitutively HBV-expressing cell line were cultured in DMEM+Glutamax-I medium (Invitrogen, Carlsbad, Calif., USA), supplemented with 10% fetal bovine serum (Invitrogen) and G418 (Invitrogen) at a final concentration of 200 mg/L and maintained in 5% CO2 at 37° C.
# HepG2.2.15 cells were seeded in duplicate into white, 96-well plates at 1.5×10^4 cells/well. The cells were treated with a three-fold serial dilution series of the compounds in DMSO. The final DMSO concentration in all wells was 1% and DMSO was used as no drug control.
# The HBsAg chemiluminescence immunoassay (CLIA) kit (Autobio Diagnostics Co., Zhengzhou, China, Catalog number: CL0310-2) was used to measure the levels of secreted HBV antigens semi-quantitatively. For the detection 50 μL/well culture supernatant was used and HBsAg was quantified using HBsAg chemiluminescence immunoassay (CLIA) kit (Autobio Diagnostics Co., Zhengzhou, China, Catalog number: CL0310-2), 50 μL of the supernatant was transferred to the CLIA assay plate and 50 μL of enzyme conjugate reagent was added into each well. The plates were sealed and gently agitated for 1 hour at room temperature. The supernatant-enzyme-mixture was discarded and wells were washed 6 times with 300 μL of PBS. The residual liquid was removed by plating the CLIA plate […] on absorbent tissue paper. 25 μL of substrates A and B were added to each well. Luminance was measured using a luminometer (Mithras LB 940 Multimode Microplate Reader) after 10 minutes incubation. Dose-response curves were generated and the IC50 value was extrapolated by using the E-WorkBook Suite (ID Business Solutions Ltd., Guildford, UK). The IC50 was defined as the compound concentration (or conditioned media log dilution) at which HBsAg secretion was reduced by 50% compared to the no drug control.
# The compounds according to formula I were tested for their capacity to inhibit HBsAg as described herein.
row,Compound,IC50 [µM]
1,"COC(=O)c1ccc(N2CCc3nc(-c4ccccn4)ncc3C2)cc1F [Example 15, methyl 2-fluoro-4-[2-(2-pyridyl)-7,8-dihydro-5H-pyrido[4,3-d]pyrimidin-6-yl]benzoate]",9.23
2,"CCCOc1cc(N2CCc3nc(-c4ccccn4)ncc3C2)cc(F)c1F [Example 22, 6-(3,4-difluoro-5-propoxy-phenyl)-2-(2-pyridyl)-7,8-dihydro-5H-pyrido[4,3-d]pyrimidine]",0.75
3,"CS(=O)(=O)c1cccc(N2CCc3nc(-c4ccccn4)ncc3C2)c1 [Example 11, 6-(3-methylsulfonylphenyl)-2-(2-pyridyl)-7,8-dihydro-5H-pyrido[4,3-d]pyrimidine]",17.4
4,CCOc1nc(-c2ccccn2)nc2c1CN(c1ccc(S(C)(=O)=O)cc1)CC2 [Example 82],3.35
5,"CS(=O)(=O)c1ccc(N2CCc3nc(-c4ccccn4)ncc3C2)cc1 [Example 1, 6-(4-methylsulfonylphenyl)-2-(2-pyridyl)-7,8-dihydro-5H-pyrido[4,3-d]pyrimidine]",4.24
6,"COc1cc(N2CCc3nc(-c4ncccn4)ncc3C2)cc(F)c1C#N [Example 77, 2-fluoro-6-methoxy-4-(2-pyrimidin-2-yl-7,8-dihydro-5H-pyrido[4,3-d]pyrimidin-6-yl)benzonitrile]",0.265
7,"O=S(=O)(c1ccc(N2CCc3nc(-c4ccccn4)ncc3C2)cc1)C(F)(F)F [Example 12, 2-(2-pyridyl)-6-[4-(trifluoromethylsulfonyl)phenyl]-7,8-dihydro-5H-pyrido[4,3-d]pyrimidine]",13.3
8,"COc1cc(F)c(F)cc1N1CCc2nc(-c3ccccn3)ncc2C1 [Example 27, 6-(4,5-difluoro-2-methoxy-phenyl)-2-(2-pyridyl)-7,8-dihydro-5H-pyrido[4,3-d]pyrimidine]",3.16
9,"CS(=O)(=O)c1ccc(N2CCc3nc(-c4ccc(F)cn4)ncc3C2)cc1 [Example 2, 2-(5-fluoro-2-pyridyl)-6-(4-methylsulfonylphenyl)-7,8-dihydro-5H-pyrido[4,3-d]pyrimidine]",10.2
10,"COc1cccc(-c2ncc3c(n2)CCN(c2cc(F)c(F)c(OC)c2)C3)n1 [Example 25, 6-(3,4-difluoro-5-methoxy-phenyl)-2-(6-methoxy-2-pyridyl)-7,8-dihydro-5H-pyrido[4,3-d]pyrimidine]",16
11,"COc1ccc(-c2ncc3c(n2)CCN(c2ccc(S(C)(=O)=O)cc2)C3)nc1 [Example 5, 2-(5-methoxy-2-pyridyl)-6-(4-methylsulfonylphenyl)-7,8-dihydro-5H-pyrido[4,3-d]pyrimidine]",42.1
12,"COc1cc(F)cc(N2CCc3nc(-c4ccccn4)ncc3C2)c1 [Example 91, 6-(3-fluoro-5-methoxy-phenyl)-2-(2-pyridyl)-7,8-dihydro-5H-pyrido[4,3-d]pyrimidine]",0.198
13,"c1ccc(COc2ccc(N3CCc4nc(-c5ccccn5)ncc4C3)cc2)cc1 [Example 46, 6-(4-benzyloxyphenyl)-2-(2-pyridyl)-7,8-dihydro-5H-pyrido[4,3-d]pyrimidine]",8.79
14,"N#Cc1cc(F)cc(N2CCc3nc(-c4ncccn4)ncc3C2)c1 [Example 101, 3-fluoro-5-(2-pyrimidin-2-yl-7,8-dihydro-5H-pyrido[4,3-d]pyrimidin-6-yl)benzonitrile]",0.674
15,C/C=C/c1nc(-c2ccccn2)nc2c1CN(c1ccc(S(C)(=O)=O)cc1)CC2 [Example 84],8.56
16,"CCOc1cc(N2CCc3nc(-c4ccccn4)ncc3C2)cc(F)c1F [Example 21, 6-(3-ethoxy-4,5-difluoro-phenyl)-2-(2-pyridyl)-7,8-dihydro-5H-pyrido[4,3-d]pyrimidine]",0.321
17,Cc1nc(-c2ccccn2)nc2c1CN(c1ccc(S(C)(=O)=O)cc1)CC2 [Example 87],10.3
18,"Clc1ccc(N2CCc3nc(-c4ccccn4)ncc3C2)nc1 [Example 36, 6-(5-chloro-2-pyridyl)-2-(2-pyridyl)-7,8-dihydro-5H-pyrido[4,3-d]pyrimidine]",1.54
